Results: patent US20070275084A1, “Compositions And Methods For The Treatment Of Skin Damage” (priority 2003, published 2007)

Tested on: human skin fibroblasts
Experiment: Collagen synthesis by human skin fibroblasts (3H-proline incorporation into collagenous protein)
Assay type: cell-based
Conditions: carnosine alone 60 mM, 48 h (FIG. 1 column 11)
Description: After starving for up to 6 hours, cells were exposed to a mixture of BMF and carnosine or the appropriate controls for 48 hours. Tritiated proline (L-[5-^3H] proline) was included in the culture medium and at the end of the experiments, the amount of ^3H proline incorporated into collagenous protein was determined as an index of collagen synthesis. A subset of cultures were treated with […] for the final 6-8 hours of the culture to determine the collagen-specific nature of incorporated radioactivity.
Human diploid ftbroblasts were obtained from neonatal foreskins collected from the Womens' and Chldrens' Hospital (North Adelaide, Australia). […]
Collagen was purified from the culture medium by successive precipitation with salt solutions at acid and neutral pH. […] The amount of radioactivity in the samples was determined using a Stcinillation counter (Wailac) as an index of the amount of new collagen synthesised. The radioactivity in each replicate well was normalised as a percentage of the average radioactivity present in the control wells from each experiment. […]

SMILES: NCCC(=O)N[C@@H](Cc1c[nH]cn1)C(=O)O [Carnosine, beta-alanyl-L-histidine]
- collagen synthesis: did not stimulate collagen synthesis
